Like-named read-outs stand apart in the source and are kept apart here.
Legend:
[1] = test system: barnyard grass Echinochloa crusgalli; experiment: Petri dish culture, growth inhibition of root and stalk of barnyard grass; type: in vivo; settings: Echinochloa crus-galli, 120 h, 5 days; for inhibition at 1 µg/mL: 1 mg/L; for inhibition at 10 µg/mL: 10 mg/L
Description: (§1) The synthesized compounds were tested for the herbicidal activity on model plants including a monocotyledon (barnyard grass) and a dicotyledon (rape) by the reported Petri dish culture method. The percent inhibitory ratios against the growth of root and stalk of barnyard grass and rape at different dosage concentrations were calculated, and the compounds with appreciable inhibitory potencies are selected and shown in Table 1 and Table 2. Several features of the inhibitory activities can be derived. First, all the compounds have stronger inhibition against the growth of the dicotyledon rape than against the monocotyledon barnyard grass, showing appreciable selectivity.
(§2) The herbicidal activity was examined for the growth inhibition effect of the dicotyledon rape Brassica napus and the monocotyledon barnyard grass Echinochloa crusgalli, using the standard Petri dish test and the pre-emergence treatment procedure. […] Nine mL of the solution was added in a Petri dish of 9 cm diameter and two pieces of filter paper were placed on the dish bottom. Twenty seeds each of rape and barnyard grass were placed on the filter paper. The covered Petri dish was transferred into an artificial climate incubator (MGC-400H, Shantou Keyi Co., Ltd., China), where the conditions were controlled at temperature 23 ± 1 °C, humidity 60 ± 5%, light intensity 10 Klux, and photoperiod 12 h/day. The incubation was continued for 5 days, then the lengths of 10 roots and 10 stems for each type of plant were measured and the mean values were calculated. The percent inhibitory ratios were calculated relative to control plants exposing to distilled water instead of the compound solution.

rape Brassica napus [2] = experiment: Petri dish culture, growth inhibition of root and stalk of rape; type: in vivo; settings: Brassica napus, 120 h, 5 days; for inhibition at 1 µg/mL: 1 mg/L; for inhibition at 10 µg/mL: 10 mg/L
Description: as §1, §2

rape Brassica napus [3] = experiment: Concentration-dependent root elongation inhibition of rape (IC50); type: in vivo; settings: Brassica napus
Description: Several representative compounds selected from the 2-phenoxy-4H-3,1-benzoxazin-4-one and 2-phenoxy-3H-quinazolin-4-one groups were tested their concentration dependant activities and the half maximal inhibitory concentrations (IC50 values) are shown in Table 3. Obviously, the 2-phenoxy-4H-3,1-benzoxazin-4-ones 3m and 3o have IC50 values near to that of the commercial herbicidal 2,4-D. More importantly, these molecules consist of 2-phenoxymethyl group with halo substituents both at the 2- and 4- positions of the benzene ring, a similar pattern to the commercial hormone herbicides 2,4-D, clomeprop, and 2,4-DB, as well as the ACCase herbicide diclofop-methyl. […] Moreover, if no halo group exists on the benzene ring, the activity will decrease dramatically. On the other hand, the substructure 4H-3,1-benzoxazin-4-one in this work and the carboxylic group in the commercial phenoxyethanoic and phenoxypropionic acid herbicides play also a crucial role in the contribution to the activities of the compounds, meaning they are active substructures.
The herbicidal activity was examined for the growth inhibition effect of the dicotyledon rape Brassica napus and the monocotyledon barnyard grass Echinochloa crusgalli, using the standard Petri dish test and the pre-emergence treatment procedure. Briefly, the compounds to be tested were dissolved in DMF and emulsified with Tween 80, and the solutions were diluted with water to the concentrations of […], respectively. Nine mL of the solution was added in a Petri dish of 9 cm diameter and two pieces of filter paper were placed on the dish bottom. Twenty seeds each of rape and barnyard grass were placed on the filter paper. The covered Petri dish was transferred into an artificial climate incubator (MGC-400H, Shantou Keyi Co., Ltd., China), where the conditions were controlled at temperature 23 ± 1 °C, humidity 60 ± 5%, light intensity 10 Klux, and photoperiod 12 h/day. The incubation was continued for 5 days, then the lengths of 10 roots and 10 stems for each type of plant were measured and the mean values were calculated. The percent inhibitory ratios were calculated relative to control plants exposing to distilled water instead of the compound solution.

[4] = root growth, read-out: Relative inhibition, root
[5] = stalk growth, read-out: Relative inhibition, stalk
[6] = rape root elongation, Table 3, read-out: IC50 for the root elongation inhibition of rape

O=c1oc(COc2ccc(Cl)cc2Cl)nc2ccc(Cl)cc12 [3o, 6-Chloro-2-((2,4-dichlorophenoxy)methyl)-4H-3,1-benzoxazin-4-one] gave an inhibition at 1 µg/mL [1, 4] of 73.6%, an inhibition at 1 µg/mL [1, 5] of -29.1% and an inhibition at 10 µg/mL [1, 4] of 89.4%. It also gave an inhibition at 10 µg/mL [1, 5] of 14.5%, an inhibition at 1 µg/mL (rape Brassica napus [2]; [4]) of 93.7% and an inhibition at 1 µg/mL (rape Brassica napus [2]; [5]) of 66.2%. The inhibition at 10 µg/mL (rape Brassica napus [2]; [4]) was 100%, the inhibition at 10 µg/mL (rape Brassica napus [2]; [5]) was 91.4% and the IC50 (rape Brassica napus [3]; [6]) was 10.7 µM. It also gave an IC50 (rape Brassica napus [3]; rape root growth, read-out: IC50, inhibitory efficacy against the rape root growth) of 0.0104 µM and a melting point of 157.9 to 160.1 °C.
With O=c1oc(COc2ccc(Cl)cc2)nc2ccccc12 [3g, 2-((4-Chlorophenoxy)methyl)-4H-3,1-benzoxazin-4-one] the inhibition at 1 µg/mL [1, 4] was 53.7%, the inhibition at 1 µg/mL [1, 5] was -25.6% and the inhibition at 10 µg/mL [1, 4] was 79.5%. For the same molecule, the inhibition at 10 µg/mL [1, 5] was -1.8%, the inhibition at 1 µg/mL (rape Brassica napus [2]; [4]) was 98% and the inhibition at 1 µg/mL (rape Brassica napus [2]; [5]) was 56.8%. For the same molecule, the inhibition at 10 µg/mL (rape Brassica napus [2]; [4]) was 100%, the inhibition at 10 µg/mL (rape Brassica napus [2]; [5]) was 68% and the IC50 (rape Brassica napus [3]; [6]) was 30.4 µM. The melting point was 147.5 to 149.2 °C.
With O=c1oc(COc2ccc(Cl)cc2Cl)nc2cccc(Cl)c12 [3n, 5-Chloro-2-((2,4-dichlorophenoxy)methyl)-4H-benzo[3,1]oxazin-4-one] the inhibition at 1 µg/mL [1, 4] was 44.4%, the inhibition at 1 µg/mL [1, 5] was 12.8% and the inhibition at 10 µg/mL [1, 4] was 57.5%. The inhibition at 10 µg/mL [1, 5] was -1.9%, the inhibition at 1 µg/mL (rape Brassica napus [2]; [4]) was 80.5% and the inhibition at 1 µg/mL (rape Brassica napus [2]; [5]) was 38.7%. The inhibition at 10 µg/mL (rape Brassica napus [2]; [4]) was 79.2%, the inhibition at 10 µg/mL (rape Brassica napus [2]; [5]) was 45.9% and the IC50 (rape Brassica napus [3]; [6]) was 43.5 µM. For the same molecule, the melting point was 161.9 to 163.2 °C.
O=c1oc(COc2ccc(Cl)cc2)nc2cccc(Cl)c12 [3h, 5-Chloro-2-((4-chlorophenoxy)methyl)-4H-3,1-benzoxazin-4-one] showed an inhibition at 1 µg/mL [1, 4] of 59.8%, an inhibition at 1 µg/mL [1, 5] of 14.7% and an inhibition at 10 µg/mL [1, 4] of 88.7%. The inhibition at 10 µg/mL [1, 5] was 41.9%, the inhibition at 1 µg/mL (rape Brassica napus [2]; [4]) was 96.3% and the inhibition at 1 µg/mL (rape Brassica napus [2]; [5]) was 62%. It also gave an inhibition at 10 µg/mL (rape Brassica napus [2]; [4]) of 100%, an inhibition at 10 µg/mL (rape Brassica napus [2]; [5]) of 91.7% and an IC50 (rape Brassica napus [3]; [6]) of 138 µM. For the same molecule, the melting point was 144.3 to 145.7 °C.
Work on O=c1oc(COc2ccc(Cl)cc2Cl)nc2cc(Cl)ccc12 [3p, 7-Chloro-2-((2,4-dichlorophenoxy)methyl)-4H-3,1-benzoxazin-4-one] yielded an inhibition at 1 µg/mL [1, 4] of 64.3%, an inhibition at 1 µg/mL [1, 5] of 5.9% and an inhibition at 10 µg/mL [1, 4] of 100%. For the same molecule, the inhibition at 10 µg/mL [1, 5] was -14.4%, the inhibition at 1 µg/mL (rape Brassica napus [2]; [4]) was 98% and the inhibition at 1 µg/mL (rape Brassica napus [2]; [5]) was 82.3%. The inhibition at 10 µg/mL (rape Brassica napus [2]; [4]) was 100%, the inhibition at 10 µg/mL (rape Brassica napus [2]; [5]) was 91.4% and the IC50 (rape Brassica napus [3]; [6]) was 11.1 µM. It also gave a melting point of 139.6 to 142.5 °C.
COc1cc2nc(COc3ccc(Cl)cc3)oc(=O)c2cc1OC [3l, 2-((4-Chlorophenoxy)methyl)-6,7-dimethoxy-4H-3,1-benzoxazin-4-one] showed an inhibition at 1 µg/mL [1, 4] of 65.5%, an inhibition at 1 µg/mL [1, 5] of 12.8% and an inhibition at 10 µg/mL [1, 4] of 78.7%. The inhibition at 10 µg/mL [1, 5] was 22%, the inhibition at 1 µg/mL (rape Brassica napus [2]; [4]) was 96.3% and the inhibition at 1 µg/mL (rape Brassica napus [2]; [5]) was 74.5%. For the same molecule, the inhibition at 10 µg/mL (rape Brassica napus [2]; [4]) was 100%, the inhibition at 10 µg/mL (rape Brassica napus [2]; [5]) was 83.4% and the IC50 (rape Brassica napus [3]; [6]) was 80.1 µM. For the same molecule, the melting point was 118.5 to 119.3 °C.
COc1cc2nc(COc3ccc(Cl)cc3Cl)n(N)c(=O)c2cc1OC [4j, 3-Amino-2-((2,4-dichlorophenoxy)methyl)-6,7-dimethoxy-3H-quinazolin-4-one] showed an inhibition at 1 µg/mL [1, 4] of 7.7%, an inhibition at 1 µg/mL [1, 5] of 8.3% and an inhibition at 10 µg/mL [1, 4] of 60%. The inhibition at 10 µg/mL [1, 5] was 5%, the inhibition at 1 µg/mL (rape Brassica napus [2]; [4]) was 58.4% and the inhibition at 1 µg/mL (rape Brassica napus [2]; [5]) was 40.2%. It also gave an inhibition at 10 µg/mL (rape Brassica napus [2]; [4]) of 84.9%, an inhibition at 10 µg/mL (rape Brassica napus [2]; [5]) of 67.2% and an IC50 (rape Brassica napus [3]; [6]) of 168 µM. It also gave a melting point of 272.3 to 273.1 °C.
Cn1c(COc2ccc(Cl)cc2)nc2cccc(Cl)c2c1=O [4k, 5-Chloro-2-((4-chlorophenoxy)methyl)-3-methyl-3H-quinazolin-4-one] gave an inhibition at 1 µg/mL [1, 4] of 32.2%, an inhibition at 1 µg/mL [1, 5] of 7.5% and an inhibition at 10 µg/mL [1, 4] of 50.9%. The inhibition at 10 µg/mL [1, 5] was 1.5%, the inhibition at 1 µg/mL (rape Brassica napus [2]; [4]) was 48.8% and the inhibition at 1 µg/mL (rape Brassica napus [2]; [5]) was 21.6%. For the same molecule, the inhibition at 10 µg/mL (rape Brassica napus [2]; [4]) was 81.9%, the inhibition at 10 µg/mL (rape Brassica napus [2]; [5]) was 52.9% and the IC50 (rape Brassica napus [3]; [6]) was 201 µM. It also gave a melting point of 184.9 to 185.7 °C.
